Measured values published in patent US9695155B2, “Herbicidal substituted pyrimidinyloxy benzene compounds” (E. I. DU PONT DE NEMOURS AND COMPANY, priority 2013, dated 2017).

What was measured:
corn = experiment: Test A postemergence; format: in vivo, Zea mays
In short: (§1)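 Visual injury scored 0–100 (100 = complete control) against untreated controls about 10 days after treatment in a greenhouse. Test chemicals, formulated with surfactant in non-phytotoxic solvent, were sprayed on soil preemergence or on 2-10 cm, one- to two-leaf plants postemergence.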

pigweed [1] = experiment: Test A preemergence; format: in vivo, Amaranthus retroflexus; conditions: 0 to 100 scale where 0 is no effect and 100 is complete control
In short: as §1

kochia = experiment: Test C postemergence; format: in vivo, Kochia scoparia
In short: (§2)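 Visual ratings on a 0–100 scale (100 = complete control) were made versus untreated controls after 13–15 greenhouse days. Chemicals in a surfactant-containing non-phytotoxic solvent were applied either preemergence to seeds in loam–sand soil or postemergence to 1- to 4-leaf plants 2–18 cm tall.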

barnyardgrass [2] = experiment: Test A preemergence; format: in vivo, Echinochloa crus-galli; conditions: 0 to 100 scale where 0 is no effect and 100 is complete control
In short: as §1

Heteranthera limosa = experiment: Test B flooded paddy test; format: in vivo; conditions: Flood, 250 g ai/ha, 0 to 100 scale where 0 is no effect and 100 is complete control
In short: (§3)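 Compound added straight to paddy water, with pots kept flooded 3 cm above soil, on plants grown to the 2-leaf stage. Visual scoring 0-100 (100 = complete control) against untreated controls after 13 to 15 greenhouse days.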

rice = experiment: Test B flooded paddy test; format: in vivo, Oryza sativa; conditions: Flood, 250 g ai/ha, 0 to 100 scale where 0 is no effect and 100 is complete control
In short: as §3

barnyardgrass [3] = experiment: Test A postemergence; format: in vivo, Echinochloa crus-galli
In short: as §1

velvetleaf = experiment: Test C postemergence; format: in vivo, Abutilon theophrasti
In short: as §2

pigweed [4] = experiment: Test A postemergence; format: in vivo, Amaranthus retroflexus
In short: as §1

giant foxtail = experiment: Test A postemergence; format: in vivo, Setaria faberii
In short: as §1

galium = experiment: Test C postemergence; format: in vivo, Galium aparine
In short: as §2

pigweed [5] = experiment: Test C postemergence; format: in vivo, Amaranthus retroflexus
In short: as §2

wheat = experiment: Test A postemergence; format: in vivo, Triticum aestivum
In short: as §1

barnyardgrass [6] = experiment: Test C postemergence; format: in vivo, Echinochloa crus-galli
In short: as §2

sedge, umbrella = experiment: Test B flooded paddy test; format: in vivo, Cyperus difformis; conditions: Flood, 250 g ai/ha, 0 to 100 scale where 0 is no effect and 100 is complete control
In short: as §3

[7] = 31 g ai/ha, 0 to 100 scale, 0 no effect, 100 complete control
[8] = 125 g ai/ha, 0 to 100 scale where 0 is no effect and 100 is complete control
[9] = 31 g ai/ha, visual, approximately 10 days
[10] = 16 g ai/ha, postemergence, 0 is no effect, 100 is complete control
[11] = 125 g ai/ha, postemergence, visual rating, scale 0 to 100 (0 no effect, 100 complete control)
[12] = Postemergence, 62 g ai/ha, scale 0 to 100 (0 no effect, 100 complete control)

## N#Cc1cnn(-c2c(Br)cccc2Oc2ncc(Cl)cn2)c1 [Compound 140]
corn; [7]
  Plant response rating, Corn: 20
corn; [8]
  Corn plant response rating: 30
Pigweed [1]; [9]
  Plant response rating, Pigweed: 90
Pigweed [1]; 125 g ai/ha
  Plant response rating, Pigweed: 100
kochia; [10]
  Plant response rating (0 to 100), Kochia: 70
kochia; [11]
  Plant response rating, Kochia: 90
kochia; [12]
  Plant response rating, Kochia: 85
Barnyardgrass [2]; [9]
  Plant response rating, Barnyardgrass: 30
Barnyardgrass [2]; 125 g ai/ha
  Plant response rating, Barnyardgrass: 70
Heteranthera limosa
  Plant response rating, Ducksalad: 80
rice
  Plant response rating, Rice: 0
Barnyardgrass [3]; [7]
  Plant response rating, Barnyardgrass: 30
Barnyardgrass [3]; [8]
  Barnyardgrass plant response rating: 70
velvetleaf; [10]
  Plant response rating (0 to 100), Velvetleaf: 5
velvetleaf; [11]
  Plant response rating, Velvetleaf: 60
velvetleaf; [12]
  Plant response rating, Velvetleaf: 45
Pigweed [4]; [7]
  Plant response rating, Pigweed: 90
Pigweed [4]; [8]
  Pigweed plant response rating: 100
Giant foxtail; [7]
  Plant response rating, Foxtail, Giant: 30
Giant foxtail; [8]
  Foxtail, Giant plant response rating: 90
galium; [10]
  Plant response rating (0 to 100), Galium: 50
galium; [11]
  Plant response rating, Galium: 95
galium; [12]
  Plant response rating, Galium: 90
Pigweed [5]; [10]
  Plant response rating (0 to 100), Pigweed: 85
Pigweed [5]; [11]
  Plant response rating, Pigweed: 90
Pigweed [5]; [12]
  Plant response rating, Pigweed: 90
wheat; [7]
  Plant response rating, Wheat: 0
wheat; [8]
  Wheat plant response rating: 0
Barnyardgrass [6]; [10]
  Plant response rating (0 to 100), Barnyardgrass: 5
Barnyardgrass [6]; [11]
  Plant response rating, Barnyardgrass: 10
Barnyardgrass [6]; Postemergence, 31 g ai/ha, scale 0 to 100 (0 no effect, 100 complete control), 13 to 15 days
  Plant response rating, Barnyardgrass: 10
Barnyardgrass [6]; [12]
  Plant response rating, Barnyardgrass: 10
sedge, umbrella
  Plant response rating, Sedge, Umbrella: 80

## Fc1cccc(Oc2ncc(Cl)cn2)c1-n1cc(C(F)F)nn1 [Compound 141, 5-chloro-2-[2-[4-(difluoromethyl)-1H-1,2,3-triazol-1-yl]-3-fluorophenoxy]pyrimidine]
corn; Zea mays, post-emergence, 240 h, 31 g ai/ha, 0 to 100 scale, 0 no effect, 100 complete control
  Corn plant response rating (crop injury, 0 = no effect, 100 = complete kill) at 31 g/ha: 30%
corn; Zea mays, post-emergence, 240 h, 125 g ai/ha, 0 to 100 scale where 0 is no effect and 100 is complete control, read-out: Corn plant response rating
  plant injury at 125 g/ha: 60%
Pigweed [1]; Amaranthus retroflexus, pre-emergence, 125 g ai/ha, read-out: Plant response rating, Pigweed
  pest or weed control at 125 g/ha: 100%
Pigweed [1]; Amaranthus retroflexus, pre-emergence, 240 h, 31 g ai/ha, visual, approximately 10 days, read-out: Plant response rating, Pigweed
  pest or weed control at 31 g/ha: 100%
kochia; Bassia scoparia, post-emergence, 16 g ai/ha, postemergence, 0 is no effect, 100 is complete control, read-out: Plant response rating (0 to 100), Kochia
  pest or weed control at 16 g/ha: 100%
kochia; Bassia scoparia, post-emergence, 125 g ai/ha, postemergence, visual rating, scale 0 to 100 (0 no effect, 100 complete control), read-out: Plant response rating, Kochia
  pest or weed control at 125 g/ha: 100%
kochia; Bassia scoparia, post-emergence, Postemergence, 62 g ai/ha, scale 0 to 100 (0 no effect, 100 complete control), read-out: Plant response rating, Kochia
  pest or weed control at 62 g/ha: 100%
Barnyardgrass [2]; Echinochloa crus-galli, pre-emergence, 240 h, 31 g ai/ha, visual, approximately 10 days, read-out: Plant response rating, Barnyardgrass
  pest or weed control at 31 g/ha: 90%
Barnyardgrass [2]; Echinochloa crus-galli, pre-emergence, 240 h, 125 g ai/ha, read-out: Plant response rating, Barnyardgrass
  pest or weed control at 125 g/ha: 100%
Heteranthera limosa; Heteranthera limosa, read-out: Plant response rating, Ducksalad
  pest or weed control at 250 g/ha: 100%
rice; Oryza sativa, read-out: Plant response rating, Rice
  plant injury at 250 g/ha: 45%
Barnyardgrass [3]; Echinochloa crus-galli, post-emergence, 240 h, 31 g ai/ha, 0 to 100 scale, 0 no effect, 100 complete control, read-out: Plant response rating, Barnyardgrass
  pest or weed control at 31 g/ha: 60%
Barnyardgrass [3]; Echinochloa crus-galli, post-emergence, 240 h, 125 g ai/ha, 0 to 100 scale where 0 is no effect and 100 is complete control, read-out: Barnyardgrass plant response rating
  pest or weed control at 125 g/ha: 100%
velvetleaf; Abutilon theophrasti, post-emergence, 16 g ai/ha, postemergence, 0 is no effect, 100 is complete control, read-out: Plant response rating (0 to 100), Velvetleaf
  pest or weed control at 16 g/ha: 80%
velvetleaf; Abutilon theophrasti, post-emergence, 125 g ai/ha, postemergence, visual rating, scale 0 to 100 (0 no effect, 100 complete control), read-out: Plant response rating, Velvetleaf
  pest or weed control at 125 g/ha: 100%
velvetleaf; Abutilon theophrasti, post-emergence, Postemergence, 62 g ai/ha, scale 0 to 100 (0 no effect, 100 complete control), read-out: Plant response rating, Velvetleaf
  pest or weed control at 62 g/ha: 100%
Pigweed [4]; Amaranthus retroflexus, post-emergence, 31 g ai/ha, 0 to 100 scale, 0 no effect, 100 complete control, read-out: Plant response rating, Pigweed
  pest or weed control at 31 g/ha: 100%
Pigweed [4]; Amaranthus retroflexus, post-emergence, 240 h, 125 g ai/ha, 0 to 100 scale where 0 is no effect and 100 is complete control, read-out: Pigweed plant response rating
  pest or weed control at 125 g/ha: 100%
Giant foxtail; Setaria faberi, post-emergence, 240 h, 31 g ai/ha, 0 to 100 scale, 0 no effect, 100 complete control, read-out: Plant response rating, Foxtail, Giant
  pest or weed control at 31 g/ha: 90%
Giant foxtail; Setaria faberi, post-emergence, 240 h, 125 g ai/ha, 0 to 100 scale where 0 is no effect and 100 is complete control, read-out: Foxtail, Giant plant response rating
  pest or weed control at 125 g/ha: 100%
galium; Galium, post-emergence, 16 g ai/ha, postemergence, 0 is no effect, 100 is complete control, read-out: Plant response rating (0 to 100), Galium
  pest or weed control at 16 g/ha: 90%
galium; Galium, post-emergence, 125 g ai/ha, postemergence, visual rating, scale 0 to 100 (0 no effect, 100 complete control), read-out: Plant response rating, Galium
  pest or weed control at 125 g/ha: 100%
galium; Galium, post-emergence, Postemergence, 62 g ai/ha, scale 0 to 100 (0 no effect, 100 complete control), read-out: Plant response rating, Galium
  pest or weed control at 62 g/ha: 98%
Pigweed [5]; Amaranthus retroflexus, post-emergence, 16 g ai/ha, postemergence, 0 is no effect, 100 is complete control, read-out: Plant response rating (0 to 100), Pigweed
  pest or weed control at 16 g/ha: 90%
Pigweed [5]; Amaranthus retroflexus, post-emergence, 125 g ai/ha, postemergence, visual rating, scale 0 to 100 (0 no effect, 100 complete control), read-out: Plant response rating, Pigweed
  pest or weed control at 125 g/ha: 98%
Pigweed [5]; Amaranthus retroflexus, post-emergence, Postemergence, 62 g ai/ha, scale 0 to 100 (0 no effect, 100 complete control), read-out: Plant response rating, Pigweed
  pest or weed control at 62 g/ha: 100%
wheat; Triticum aestivum, post-emergence, 240 h, 31 g ai/ha, 0 to 100 scale, 0 no effect, 100 complete control, read-out: Plant response rating, Wheat
  plant injury at 31 g/ha: 10%
wheat; Triticum aestivum, post-emergence, 240 h, 125 g ai/ha, 0 to 100 scale where 0 is no effect and 100 is complete control, read-out: Wheat plant response rating
  plant injury at 125 g/ha: 80%
Barnyardgrass [6]; Echinochloa crus-galli, post-emergence, 16 g ai/ha, postemergence, 0 is no effect, 100 is complete control, read-out: Plant response rating (0 to 100), Barnyardgrass
  pest or weed control at 16 g/ha: 15%
Barnyardgrass [6]; Echinochloa crus-galli, post-emergence, 125 g ai/ha, postemergence, visual rating, scale 0 to 100 (0 no effect, 100 complete control), read-out: Plant response rating, Barnyardgrass
  pest or weed control at 125 g/ha: 40%
Barnyardgrass [6]; Echinochloa crus-galli, post-emergence, Postemergence, 31 g ai/ha, scale 0 to 100 (0 no effect, 100 complete control), 13 to 15 days, read-out: Plant response rating, Barnyardgrass
  pest or weed control at 31 g/ha: 15%
Barnyardgrass [6]; Echinochloa crus-galli, post-emergence, Postemergence, 62 g ai/ha, scale 0 to 100 (0 no effect, 100 complete control), read-out: Plant response rating, Barnyardgrass
  pest or weed control at 62 g/ha: 20%
sedge, umbrella; Cyperus difformis, read-out: Plant response rating, Sedge, Umbrella
  pest or weed control at 250 g/ha: 90%
